According to PMC11677424, “Early-Stage IM Treatment with the Host-Derived Immunostimulant CPDI-02 Increases Curative Protection of Healthy Outbred Mice Against Subcutaneous Infection with Community-Acquired Methicillin-Resistant Staphylococcus aureus USA300” (Pharmaceutics, 2024):

Assays:
[1] = system: CA-MRSA USA300 LAC; assay: CA-MRSA burden of subcutaneous abscesses after single IM treatment; format: in vivo, Staphylococcus aureus; settings: female CD-1 mice, single IM 50 mg/kg at 6 h post-challenge, Day 1 post-challenge
Procedure: At 24 h post-challenge (Section 2.4: single IM treatment), mice were euthanized (n = 5 per cohort) and rear flanks were disinfected with 70% EtOH. Abscess and skin biopsies (Tru-Punch Sterile Disposable Biopsy Punch Razors, 8 mm^2, Sklar instruments 961130) were suspended in TSB [2 mL] and homogenized in C tubes (Miltenyi Biotec 130-093-237, Bergisch Gladbach, DE) using a gentleMACS Dissociator (Miltenyi Biotec 130-093-235, program B). Homogenized abscess tissues were serially diluted in PBS and plated on TSA plates and incubated at 37 °C for 24 h, and bacterial colonies were counted. Bacterial colony counts per abscess were normalized to starting tissue weights and compared using a Mann–Whitney test (nonparametric t-test). Sections of paraffin-embedded tissues collected above were also Gram-stained and analyzed on a Nikon Eclipse E600 (Minato City, Japan) at 200× magnification and imaged using a Lumenera Infinity 2 Microscope Camera (Ottawa, ON, Canada).

[2] = Preliminary PK and distribution after IM or IV administration (LC-MS/MS); format: in vivo, female outbred CD-1 mice
Procedure: Female outbred CD-1 mice (4-6 weeks old) were infected SQ with CA-MRSA, as described (Section 2.4). At 6 h post-infection, vehicle alone (PBS) or vehicle containing 12.5 mg CPDI-02/kg (IV) or 50 mg/kg (IM) and blood samples (50 µL) were collected from the submandibular vein (Medipoint Goldenrod Lancet, 5 mm) at 2, 4, 8, and 24 h post-treatment into EDTA-coated tubes containing 200 µL of acidified methanol (0.1% formic acid v/v), and immediately mixed by repeated inversion. Samples were pelleted (16,000 RCF) for 10 min, and supernatants were stored at −80 °C until analysis. At 24 h post-challenge, mice were euthanized, and rear flanks were disinfected with 70% ethanol. Abscesses (Section 2.5) and organs were excised, rinsed with deionized H2O, dried, and 50 mg sections were collected in 200 µL of acidified methanol, homogenized using a gentleMACS Dissociator (Miltenyi Biotec 130-093-235, Tokyo, Japan), and stored at −80 °C until analysis.
Peptide quantitation was performed using a Waters ACQUITY UPLC system coupled to a Xevo TQ-XS Tandem Quadrupole Mass Spectrometer with electrospray ionization. […] The following MRM m/z values were monitored: 621.4 > 84 and 621.4 > 100 for the analyte and IS, respectively. Peptide concentrations were determined using analyte-to-IS peak area ratios. […]

[3] = system: CA-MRSA USA300 LAC; assay: Curative treatment of female CD-1 mice infected SQ with CA-MRSA: abscess surface area by image analysis; format: in vivo, Staphylococcus aureus; settings: for effect on maximum abscess surface area or time to resolution vs vehicle alone: 6 treatments
Procedure: CA-MRSA USA300 LAC (Staphylococcus aureus Rosenbach, ATCC BAA-1756) was stored in 50% glycerol at −80 °C until use. To start a culture, a Tryptic Soy Agar (TSA; Remel) plate was streaked and incubated overnight at 37 °C. A single colony from the streaked agar plate was transferred to a 50 mL conical tube containing 30 mL of Tryptic Soy Broth (TSB; Remel) and incubated [37 °C] overnight while shaking [200 rpm]. The overnight culture was diluted [1:10] in TSB, incubated at 37 °C for ~2 h until A600 = 0.5 to 0.55, and pelleted [3000 g, 10 min] at 4 °C. The pellet was resuspended in PBS and pelleted as before and then resuspended in 0.05% (w/v) Cytodex-1 in sterile PBS (typical yield ~5 × 10^8 CFU/mL). MRSA concentration was confirmed by serial dilution in sterile PBS, dot plating on TSA plates, and incubation at 37 °C for 24 h before counting.
All procedures were approved by the University of Nebraska Medical Center Institutional Animal Care and Use Committee. Female outbred CD-1 mice (Charles Rivers, Strain Code 022, 4-6 weeks old) were acclimated in the animal facility for at least one week, and their rear flanks were shaved 24 h before the study. Mice were anesthetized with isoflurane and 0.100 mL of CA-MRSA stock solution (Section 2.3) was injected SQ (5 × 10^7 CFU total) from the left rear flank into the dorsal side. […] For IM (left caudal muscle) and SQ (left flank) administration, CPDI-02 was administered in 0.050 mL of sterile PBS [20 mg/mL] (volume adjusted to 50 mg/kg dose). For topical administration (TOP), CPDI-02 was applied to abscesses in 0.100 mL of ointment (3% w/v) (Section 2.2) using a positive displacement pipette [150 mg/kg dose]. For IV administration (tail vein), CPDI-02 was administered in 0.050 mL sterile PBS [5 mg/mL] (volume adjusted to 12.5 mg/kg dose). […] Mouse abscesses were imaged with reference scales daily over 10 days starting at 24 h post-challenge. Abscess surface areas were determined by image analysis (ImageJ®, ver.1.54h) and compared between vehicle and treatment group for each administration route over ten days post-challenge by repeated measurement with two-way ANOVA with Geisser–Greenhouse correction.

CSCC[C@H](NC(=O)[C@H](CC(=O)O)NC(=O)[C@H](CCCCN)NC(=O)[C@H](Cc1ccccc1)NC(=O)[C@H](CO)NC(=O)[C@@H](N)Cc1ccc(O)cc1)C(=O)N1CCC[C@H]1C(=O)N(C)[C@@H](CC(C)C)C(=O)N[C@H](C)C(=O)N[C@@H](CCCNC(=N)N)C(=O)O [CPDI-02]
detectable CA-MRSA in subcutaneous abscesses (Gram staining) vs vehicle ([1]; histochemistry): qualitatively decreased
CA-MRSA CFU/g of abscess tissue ([1]; mean ± SD, vehicle 3 × 10^6 ± 2 × 10^6, SD): 1.8 × 10^6 ± 0.8 × 10^6 CFU/g of abscess tissue
relative distribution to heart, lungs, liver, kidneys, spleen or brain, IM vs IV ([2]; IM 50 mg/kg vs IV 12.5 mg/kg, 18 h post-treatment, n = 3 to 5): no effect
plasma concentrations after IM vs IV administration ([2]; abscess-bearing female CD-1 mice, IM 50 mg/kg vs IV 12.5 mg/kg at 6 h post-challenge, 2, 4, 8, 24 h post-treatment, n = 5): increased
effect of repeat treatment starting at 24 h post-challenge ([3]; regardless of administration route): no effect
maximum abscess surface area (Day 1 post-challenge) ([3]; repeat IM 50 mg/kg starting 6 h post-challenge, mean ± SEM, n = 10, vehicle 74 ± 11, p = 0.0052, SEM): 31 ± 8 mm^2
effect on maximum abscess surface area or time to resolution vs vehicle alone ([3]; repeat IV (tail vein) 12.5 mg/kg starting 6 h post-challenge): no effect
effect on maximum abscess surface area or time to resolution vs vehicle alone ([3]; repeat SQ (left flank) 50 mg/kg starting 6 h post-challenge): no effect
effect on maximum abscess surface area or time to resolution vs vehicle alone ([3]; repeat topical (TOP), 0.100 mL of 3% w/v ointment on abscess, 150 mg/kg, starting 6 h post-challenge): no effect
time to resolution vs vehicle alone ([3]; single IM 50 mg/kg at 6 h post-challenge, similar extent as repeated IM treatment): decreased
